BindingDB's records for doi:10.7270/Q20863RR (Nmmlsc, 2010)

Target: T1, Regulator of G-protein signaling 7 (Homo sapiens, UniProt P49802)
T1 sequence (P49802 whole entry): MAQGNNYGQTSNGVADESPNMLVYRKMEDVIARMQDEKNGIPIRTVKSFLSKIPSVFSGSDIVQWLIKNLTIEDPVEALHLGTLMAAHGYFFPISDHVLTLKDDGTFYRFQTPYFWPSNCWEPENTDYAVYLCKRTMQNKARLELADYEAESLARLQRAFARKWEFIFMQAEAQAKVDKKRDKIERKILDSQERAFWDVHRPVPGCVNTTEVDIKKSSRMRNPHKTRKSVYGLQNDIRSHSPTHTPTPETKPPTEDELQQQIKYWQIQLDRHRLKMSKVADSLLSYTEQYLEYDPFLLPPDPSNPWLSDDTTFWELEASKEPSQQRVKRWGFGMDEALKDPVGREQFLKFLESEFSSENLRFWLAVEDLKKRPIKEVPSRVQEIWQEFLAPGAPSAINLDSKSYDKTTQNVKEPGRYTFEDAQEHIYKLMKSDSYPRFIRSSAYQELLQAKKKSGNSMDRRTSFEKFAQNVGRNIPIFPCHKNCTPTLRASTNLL
Assay: small molecules altering RGS7 interaction with Galphao – biochemical, multiplexed bead flow cytometry, SAR compounds, SAR follow-up (AID 2296)

SMILES: NS(=O)(=O)c1ccc(N=NCc2ccc(O)c(O)c2O)c([N+](=O)[O-])c1 [4-[[(E)-(2,3-dihydroxy-4-oxo-1-cyclohexa-2,5-dienylidene)methyl]hydrazo]-3-nitrobenzenesulfonamide]
- Ki: 120 nM
